Experimental data reported in patent US10882829B2, “Pharmaceutical compounds” (Sareum Limited, priority 2012, dated 2021).

Experiments:
Assay type in all cases: biochemical
JAK3 = JAK3 (Homo sapiens (Human), UniProt P52333); experiment: JAK3 kinase inhibition assay (33P-ATP, Reaction Biology Corp.); conditions: substrate JAK3tide, 120 min at room temperature, read-out: In Vitro Enzyme IC50 (nM) JAK3
Protocol: (§1) Compounds of the invention were assayed for their ability to inhibit TYK2 kinase and other JAK kinases.
(§2) Substrates and kinases used in the assays are identified in Table 2 below.

JAK2 = JAK2 (Homo sapiens (Human), UniProt O60674); experiment: JAK2 kinase inhibition assay (33P-ATP, Reaction Biology Corp.); conditions: substrate pEY, 120 min at room temperature, read-out: In Vitro Enzyme IC50 (nM) JAK2
JAK2, sequence (O60674 809-1132): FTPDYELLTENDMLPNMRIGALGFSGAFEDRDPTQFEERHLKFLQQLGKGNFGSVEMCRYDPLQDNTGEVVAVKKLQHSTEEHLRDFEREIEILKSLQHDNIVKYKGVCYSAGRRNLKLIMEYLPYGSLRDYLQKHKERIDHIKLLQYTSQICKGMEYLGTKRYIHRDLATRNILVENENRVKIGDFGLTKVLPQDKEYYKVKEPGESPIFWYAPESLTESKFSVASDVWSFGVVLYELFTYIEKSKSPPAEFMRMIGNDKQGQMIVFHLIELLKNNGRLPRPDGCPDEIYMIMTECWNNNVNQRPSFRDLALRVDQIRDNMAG
Protocol: as §1, §2

TYK2 kinase = TYK2 kinase (Homo sapiens (Human), UniProt P29597); experiment: TYK2 kinase inhibition assay (33P-ATP, Reaction Biology Corp.); conditions: substrate AXLtide, 120 min at room temperature, read-out: In Vitro Enzyme IC50 (nM) TYK2
TYK2 kinase, sequence (P29597 833-1187): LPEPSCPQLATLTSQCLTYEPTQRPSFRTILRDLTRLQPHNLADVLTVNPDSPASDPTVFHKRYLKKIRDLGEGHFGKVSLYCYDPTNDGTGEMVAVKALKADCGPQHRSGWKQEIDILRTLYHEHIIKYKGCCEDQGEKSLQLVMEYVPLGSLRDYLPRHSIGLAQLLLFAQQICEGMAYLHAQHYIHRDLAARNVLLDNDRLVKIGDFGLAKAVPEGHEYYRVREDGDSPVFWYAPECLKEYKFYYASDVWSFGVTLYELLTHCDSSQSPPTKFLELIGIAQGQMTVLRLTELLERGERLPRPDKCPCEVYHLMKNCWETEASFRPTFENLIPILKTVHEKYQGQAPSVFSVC
Protocol: as §1, §2

JAK1 = JAK1 (Homo sapiens (Human), UniProt P23458); experiment: JAK1 kinase inhibition assay (33P-ATP, Reaction Biology Corp.); conditions: substrate pEY, 120 min at room temperature, read-out: In Vitro Enzyme IC50 (nM) JAK1
JAK1, sequence (P23458 866-1154): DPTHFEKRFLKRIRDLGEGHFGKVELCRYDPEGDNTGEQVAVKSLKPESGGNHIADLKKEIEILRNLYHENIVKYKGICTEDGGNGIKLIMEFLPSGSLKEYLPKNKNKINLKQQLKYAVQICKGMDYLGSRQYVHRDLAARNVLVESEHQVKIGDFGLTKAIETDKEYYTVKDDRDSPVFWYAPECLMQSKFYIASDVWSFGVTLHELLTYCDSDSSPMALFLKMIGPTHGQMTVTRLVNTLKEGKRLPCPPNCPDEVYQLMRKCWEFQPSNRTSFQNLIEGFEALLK
Protocol: as §1, §2

JAK3, sequence (P52333 781-1124): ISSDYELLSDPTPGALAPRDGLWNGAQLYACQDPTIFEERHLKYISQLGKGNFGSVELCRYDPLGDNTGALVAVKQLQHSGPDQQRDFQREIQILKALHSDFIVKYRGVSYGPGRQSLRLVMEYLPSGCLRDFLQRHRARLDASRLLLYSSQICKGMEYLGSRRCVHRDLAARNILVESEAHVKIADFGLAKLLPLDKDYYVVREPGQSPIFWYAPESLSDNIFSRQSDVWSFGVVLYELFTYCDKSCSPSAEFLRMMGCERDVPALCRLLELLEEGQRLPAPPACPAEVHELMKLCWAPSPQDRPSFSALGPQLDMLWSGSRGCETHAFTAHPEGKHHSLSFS

IC50 (JAK3) [nM]	IC50 (JAK2) [nM]	IC50 (TYK2 kinase) [nM]	IC50 (JAK1) [nM]	Compound
126	36	9.6	67.2	NC(=O)c1nc(-c2c(F)cccc2F)oc1Nc1ccc(C(=O)N2CCC[C@@H]2CO)cc1 [Example 14, (R)-2-(2,6-difluorophenyl)-5-(4-(2-(hydroxymethyl)pyrrolidine-1-carbonyl)phenylamino)oxazole-4-carboxamide]
195	101	7.5	41.1	NC(=O)c1nc(-c2c(F)cccc2F)oc1Nc1ccc(C(=O)NCCO)cc1 [Example 15, 5-(4-((2-hydroxyethyl)carbamoyl)phenylamino)-2-(2,6-difluorophenyl)oxazole-4-carboxamide]
199	119	8.4	58.1	NC(=O)c1nc(-c2c(F)cccc2F)oc1Nc1ccc(C(=O)NCCCO)cc1 [Example 16, 5-(4-((3-hydroxypropyl)carbamoyl)phenylamino)-2-(2,6-difluorophenyl)oxazole-4-carboxamide]
99.2	167	13.7	153	NC(=O)c1nc(-c2c(F)cccc2F)oc1Nc1ccc(C(=O)NC2CCNCC2)cc1 [Example 17, 2-(2,6-difluorophenyl)-5-(4-(piperidin-4-ylcarbamoyl)phenylamino)oxazole-4-carboxamide]
165	192	13.8	118	CN1CCC(NC(=O)c2ccc(Nc3oc(-c4c(F)cccc4F)nc3C(N)=O)cc2)CC1 [Example 18, 5-(4-((1-methylpiperidin-4-yl)carbamoyl)phenylamino)-2-(2,6-difluorophenyl) oxazole-4-carboxamide]
214	87.7	2.3	21.9	CS(=O)(=O)c1ccc(Nc2oc(-c3c(Cl)cccc3Cl)nc2C(N)=O)cc1 [Example 19, 2-(2,6-Dichloro-phenyl)-5-(4-methanesulfonyl-phenylamino)-oxazole-4-carboxylic acid amide]
165	72.6	2.7	28.7	CS(=O)(=O)c1ccc(Nc2oc(-c3c(F)cccc3Cl)nc2C(N)=O)cc1 [Example 20, 2-(2-Chloro-6-fluoro-phenyl)-5-(4-methanesulfonyl-phenylamino)-oxazole-4-carboxylic acid amide]
2180	412	68.3	241	CS(=O)(=O)c1ccc(Nc2oc(-c3c(F)cc(F)cc3F)nc2C(N)=O)cc1 [Example 21, 5-(4-Methanesulfonyl-phenylamino)-2-(2,4,6-trifluoro-phenyl)-oxazole-4-carboxylic acid amide]
5500	663	183	843	CS(=O)(=O)c1ccc(Nc2oc(-c3cc(F)ccc3F)nc2C(N)=O)cc1 [Example 22, 2-(2,5-Difluoro-phenyl)-5-(4-methanesulfonyl-phenylamino)-oxazole-4-carboxylic acid amide]

The next lines start with the compound.

Compound	IC50 (JAK3) [nM]	IC50 (JAK2) [nM]	IC50 (TYK2 kinase) [nM]	IC50 (JAK1) [nM]
CS(=O)(=O)c1ccc(Nc2oc(-c3c(F)cccc3F)nc2C(N)=O)cc1 [Example 1, 2-(2,6-difluorophenyl)-5-(4-(methylsulfonyl)phenylamino)oxazole-4-carboxamide]	405	235	13.5	90.2
NC(=O)c1nc(-c2c(F)cccc2F)oc1Nc1ccc(S(N)(=O)=O)cc1 [Example 2, 2-(2,6-difluorophenyl)-5-(4-sulfamoylphenylamino)oxazole-4-carboxamide]	419	147	14.6	78.2
CN(C)S(=O)(=O)c1ccc(Nc2oc(-c3c(F)cccc3F)nc2C(N)=O)cc1 [Example 3, 2-(2,6-difluorophenyl)-5-(4-(N,N-dimethylsulfamoyl)phenylamino)oxazole-4-carboxamide]	359	95	5.3	47.6
CNS(=O)(=O)c1ccc(Nc2oc(-c3c(F)cccc3F)nc2C(N)=O)cc1 [Example 4, 2-(2,6-difluorophenyl)-5-(4-(N′-methylsulfamoyl)phenylamino)oxazole-4-carboxamide]	387	109	13.8	65.6
CN(C)C(=O)c1ccc(Nc2oc(-c3c(F)cccc3F)nc2C(N)=O)cc1 [Example 5, 2-(2,6-difluorophenyl)-5-(4-(dimethylcarbamoyl)phenylamino)oxazole-4-carboxamide]	219	112	9.2	88.6
NCCCNC(=O)c1ccc(Nc2oc(-c3c(F)cccc3F)nc2C(N)=O)cc1 [Example 6, 5-(4-((3-aminopropyl)carbamoyl)phenylamino)-2-(2,6-difluorophenyl)oxazole-4-carboxamide]	472	297	25	192
NC(=O)c1nc(-c2c(F)cccc2F)oc1Nc1ccc(C(=O)N[C@@H]2CCCNC2)cc1 [Example 7, (R)-2-(2,6-difluorophenyl)-5-(4-(piperidin-3-ylcarbamoyl)phenylamino)oxazole-4-carboxamide]	419	261	9.8	202
NC(=O)c1nc(-c2c(F)cccc2F)oc1Nc1ccc(C(=O)N[C@H]2CCCNC2)cc1 [Example 8, (S)-2-(2,6-difluorophenyl)-5-(4-(piperidin-3-ylcarbamoyl)phenylamino)oxazole-4-carboxamide]	408	268	12.9	201
NC(=O)c1nc(-c2c(F)cccc2F)oc1Nc1ccc(C(=O)N2CCOCC2)cc1 [Example 9, 2-(2,6-difluorophenyl)-5-(4-(morpholine-4-carbonyl)phenylamino)oxazole-4-carboxamide]	423	267	22.7	75.6
CNCCNC(=O)c1ccc(Nc2oc(-c3c(F)cccc3F)nc2C(N)=O)cc1 [Example 10, 5-(4-((2-(methylamino)ethyl)carbamoyl)phenylamino)-2-(2,6-difluorophenyl) oxazole-4-carboxamide]	397	311	20.5	183
CNCCCNC(=O)c1ccc(Nc2oc(-c3c(F)cccc3F)nc2C(N)=O)cc1 [Example 11, 5-(4-((3-(methylamino)propyl)carbamoyl)phenylamino)-2-(2,6-difluorophenyl) oxazole-4-carboxamide]	388	338	15.1	190
NC(=O)c1nc(-c2c(F)cccc2F)oc1Nc1ccc(C(=O)N[C@@H]2CCNC2)cc1 [Example 12, (R)-2-(2,6-difluorophenyl)-5-(4-(pyrrolidin-3-ylcarbamoyl)phenylamino)oxazole-4-carboxamide]	346	292	23.4	169
NC(=O)c1nc(-c2c(F)cccc2F)oc1Nc1ccc(C(=O)N[C@H]2CCNC2)cc1 [Example 13, (S)-2-(2,6-difluorophenyl)-5-(4-(pyrrolidin-3-ylcarbamoyl)phenylamino)oxazole-4-carboxamide]	342	182	11.2	123
